Source: EP1339694B1 (F. HOFFMANN-LA ROCHE AG, priority 2000, dated 2002)
Read-outs that look alike come from different tables or passages of the source.

Target: T1, Human Platelet IP Receptor (Homo sapiens, UniProt P43119)
T1 construct: 250 ml Platelet Rich Plasma was transferred into 250 ml centrifuge tubes and spun at 6000 g; from tissue; host or cells: membranes prepared from platelets (platelet rich plasma)
Experiment: In vitro Human Platelet IP Receptor Radioligand Binding Assay
Method: In vitro Human Platelet IP Receptor Radioligand Binding Assay
The in vitro Human Platelet IP Receptor Binding Assay measures the strength of a potential drug's binding affinity to its intended target.
The following buffers were prepared using the purest available water.
250 ml Platelet Rich Plasma was transferred into 250 ml centrifuge tubes and spun at 6000 g for 10 min at 20 °C. Pellets were then resuspended in IP lysis buffer and homogenized using a polytron(setting 7, 1x20 sec. burst), brought up to a final volume of 180 ml and centrifuged at 40000 g for 15 min at 4 °C. The pellets were then resuspended in IP assay buffer, protein density determined by BCA method (Pierce) and stored in 2.0 ml vials at -80 °C for subsequent assay use.
To obtain at least 80 % specific binding, 50 µg protein/assay tube was used in a competition experiment. The final radioligand concentration was 1 to 3E-8 M.
The membranes were thawed at room temperature and then diluted in assay buffer to the appropriate concentration. First buffer, drug, radioligand, and lastly, membranes were added to the assay tubes. […] The assay tubes were filtered onto 0.3% PEI pre-treated glass fiber filtermats (GF/ B) using Packard Top Count 96 well cell harvester. The tubes were rinsed three times with ice cold 20mM Tris-HCl, 5mM MgCl2, pH=7.4 (3 x 0.5 ml/sample). Bound radioactivity was determined using liquid scintillation counting.

[1] = human platelet membranes, radioligand competition, 25 °C for 60 min, read-out: Affinity towards the Human Platelet IP Receptor (pKi) (converted)

T1 sequence (P43119 whole entry): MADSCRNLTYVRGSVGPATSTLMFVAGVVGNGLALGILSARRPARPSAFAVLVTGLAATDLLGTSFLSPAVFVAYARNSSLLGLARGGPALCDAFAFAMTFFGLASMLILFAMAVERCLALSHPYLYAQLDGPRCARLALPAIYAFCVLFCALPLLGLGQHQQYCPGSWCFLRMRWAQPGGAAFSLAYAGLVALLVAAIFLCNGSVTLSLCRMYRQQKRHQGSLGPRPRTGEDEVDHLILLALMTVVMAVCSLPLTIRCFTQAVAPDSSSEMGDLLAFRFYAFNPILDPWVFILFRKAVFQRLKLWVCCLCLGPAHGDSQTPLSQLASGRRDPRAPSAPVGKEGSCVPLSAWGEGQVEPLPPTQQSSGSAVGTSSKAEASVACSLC

SMILES | Ki [1] | Ki
CC(=O)N1CCN(c2ccc(C(=O)CCc3ccc(NC4=NCCN4)cc3)cc2)CC1 [1-[4-(4-acetylpiperazin-1-yl)phenyl]-3-[4-(4,5-dihydro-1H-imidazol-2-ylamino)-phenyl]propan-1-one] | 6.31 nM | 
O=C(CCc1ccc(NC2=NCCN2)cc1)c1ccc(-c2ccccc2)cc1 [3-[4-(4,5-dihydro-1H-imidazol-2-ylamino)phenyl]-1-(4-phenylphenyl)-propan-1-one] | 1.48 nM | 
O=C(CCc1ccc(NC2=NCCN2)cc1)c1ccc(F)cc1 [Example 1, 3-[4-(4,5-Dihydro-1H-imidazol-2-ylamino)phenyl]-1-(4-fluorophenyl)propan-1-one] | 0.316 nM | 
O=C(CCc1ccc(NC2=NCCN2)cc1)c1ccc(OCc2ccccc2)cc1 [3-[4-(4,5-dihydro-1H-imidazol-2-ylamino)phenyl]-1-(4-benzyloxyphenyl)-propan-1-one] | 11.2 nM | 
CCOC(=O)N1CCN(c2ccc(C(=O)CCc3ccc(NC4=NCCN4)cc3)c(F)c2)CC1 [3-[4-(4,5-dihydro-1H-imidazol-2-ylamino)phenyl]-1-[4-(4-ethoxycarbonyl-piperazin-1-yl)-2-fluorophenyl]propan-1-one] | 67.6 nM | 
CCCOC(=O)N1CCN(c2ccc(C(=O)CCc3ccc(NC4=NCCN4)cc3)cc2)CC1 [3-[4-(4,5-dihydro-1H-imidazol-2-ylamino)phenyl]-1-[4-(4-propoxycarbonyl-piperazin-1-yl)phenyl]propan-1-one] | 58.9 nM | 
CS(=O)(=O)N1CCN(c2ccc(C(=O)CCc3ccc(NC4=NCCN4)cc3)cc2)CC1 [Example 6, 3-[4-(4,5-Dihydro-1H-imidazol-2-ylamino)phenyl]-1-[4-(4-methanesulfonyl-piperazin-1-yl)phenyl]propan-1-one] | 28.2 nM | 
O=C(CCc1ccc(NC2=NCCN2)cc1)c1ccc(N2CCOCC2)cc1F [Example 4, 3-[4-(4,5-Dihydro-1H-imidazol-2-ylamino)phenyl]-1-(2-fluoro-4-morpholin-4-yl-phenyl)propan-1-one] | 18.2 nM | 
COc1ccc(C(=O)COc2ccc(NC3=NCCN3)cc2)cc1 [Example 10, 2-[4-(4,5-Dihydro-1H-imidazol-2-ylamino)phenoxy]-1-(4-methoxyphenyl)ethanone] | 2.75 nM | 
O=C(CCc1ccc(NC2=NCCN2)cc1)c1ccc(N2CCN(C(=O)c3ccco3)CC2)cc1 |  | 0.468 nM
CCOC(=O)N1CCN(c2ccc(C(=O)CCc3ccc(NC4=NCCN4)cc3)cc2)CC1 [Example 5, 3-[4-(4,5-Dihydro-1H-imidazol-2-ylamino)phenyl]-1-[4-(4-ethoxycarbonyl-piperazin-1-yl)-phenyl]propan-1-one] | 9.33 nM | 
O=C(CCc1ccc(NC2=NCCN2)cc1)c1ccc(Oc2ccccc2)cc1 | 20 nM | 
O=C(COc1ccc(NC2=NCCN2)cc1)c1ccc2c(c1)OCCO2 [Example 9, 1-(2,3-Dihydrobenzo[1,4]dioxin-6-yl)-2-[4-(4,5-dihydro-1H-imidazol-2-ylamino)-phenoxy] ethanone] | 44.7 nM | 
CCNC(=O)N1CCN(c2ccc(C(=O)CCc3ccc(NC4=NCCN4)cc3)cc2)CC1 [3-[4-(4,5-dihydro-1H-imidazol-2-ylamino)phenyl]-1-[4-(4-ethylamino-carbonyl-piperazin-1-yl)phenyl]propan-1-one] | 38.9 nM | 
O=C(CCc1ccc(NC2=NCCN2)cc1)c1ccc(N2CCOCC2)cc1 [Example 3, 3-[4-(4,5-Dihydro-1H-imidazol-2-ylamino)phenyl]-1-(4-morpholin-4-ylphenyl)-propan-1-one] |  | 5.25 nM
CN1CCN(c2ccc(C(=O)CCc3ccc(NC4=NCCN4)cc3)cc2)CC1 [3-[4-(4,5-dihydro-1H-imidazol-2-ylamino)phenyl]-1-[4-(4-methylpiperazin-1-yl)-phenyl]propan-1-one] | 7.08 nM | 
O=C(CCCc1ccc(NC2=NCCN2)cc1)c1ccc(F)cc1 [Example 8, 4-[4-(4,5-Dihydro-1H-imidazol-2-ylamino)phenyl]-1-(4-fluorophenyl)butan-1-one] | 3.09 nM | 
CC(C)Oc1ccc(C(=O)CCc2ccc(NC3=NCCN3)cc2)cc1 [3-[4-(4,5-dihydro-1H-imidazol-2-ylamino)phenyl]-1-(4-isopropoxyphenyl)-propan-1-one] | 0.437 nM | 
COc1ccc2cc(C(=O)CCc3ccc(NC4=NCCN4)cc3)ccc2c1 [3-[4-(4,5-dihydro-1H-imidazol-2-ylamino)phenyl]-1-(6-methoxynaphthalen-2-yl)-propan-1-one] | 0.427 nM | 

More lines, main results first:

Ki [1] | SMILES | Ki
56.2 nM | O=C(CCc1ccc(NC2=NCCN2)cc1)c1ccc(F)cc1F [1-(2,4-difluorophenyl)-3-[4-(4,5-dihydro-1H-imidazol-2-ylamino)phenyl]-propan-1-one] | 
9.55 nM | O=C(CCc1ccc(NC2=NCCN2)cc1)c1ccc(Cl)c(Cl)c1 [1-(3,4-dichlorophenyl)-3-[4-(4,5-dihydro-1H-imidazol-2-ylamino)phenyl]-propan-1-one] | 
0.708 nM | O=C(CCc1ccc(NC2=NCCN2)cc1)c1cc(F)c(Cl)cc1Cl [1-(4,6-dichloro-3-fluorophenyl)-3-[4-(4,5-dihydro-1H-imidazol-2-ylamino)-phenyl]propan-1-one] | 
22.4 nM | O=C(CCc1ccc(NC2=NCCN2)cc1)c1ccc(F)c(F)c1 [1-(3,4-difluorophenyl)-3-[4-(4,5-dihydro-1H-imidazol-2-ylamino)phenyl]-propan-1-one] | 
1 nM | COc1ccc(C(=O)CCc2ccc(NC3=NCCN3)cc2)c(F)c1 [3-[4-(4,5-dihydro-1H-imidazol-2-ylamino)phenyl]-1-(2-fluoro-4-methoxy-phenyl)-propan-1-one] | 
3.16 nM | O=C(CCc1ccc(NC2=NCCN2)cc1)c1ccccc1 [3-[4-(4,5-dihydro-1H-imidazol-2-ylamino)phenyl]-1-(phenyl)propan-1-one] | 
0.676 nM | O=C(CCc1ccc(NC2=NCCN2)cc1)c1cccc(F)c1 [3-[4-(4,5-dihydro-1H-imidazol-2-ylamino)phenyl]-1-(3-fluorophenyl)propan-1-one] | 
0.447 nM | O=C(CCc1ccc(NC2=NCCN2)cc1)c1ccccc1F [3-[4-(4,5-dihydro-1H-imidazol-2-ylamino)phenyl]-1-(2-fluorophenyl)propan-1-one] | 
4.9 nM | O=C(CCc1ccc(NC2=NCCN2)cc1)c1ccc2ccccc2c1 [3-[4-(4,5-dihydro-1H-imidazol-2-ylamino)phenyl]-1-(naphthalen-2-yl)propan-1-one] | 
0.282 nM | O=C(CCc1ccc(NC2=NCCN2)cc1)c1ccc(Cl)cc1Cl [1-(2,4-dichlorophenyl)-3-[4-(4,5-dihydro-1H-imidazol-2-ylamino)phenyl]-propan-1-one] | 
0.741 nM | O=C(CCc1ccc(NC2=NCCN2)cc1)c1cc(F)cc(F)c1 [1-(3,5-difluorophenyl)-3-[4-(4,5-dihydro-1H-imidazol-2-ylamino)phenyl]-propan-1-one] | 
1.02 nM | O=C(CCc1ccc(NC2=NCCN2)cc1)c1cccc2ccccc12 [3-[4-(4,5-dihydro-1H-imidazol-2-ylamino)phenyl]-1-(naphthalen-1-yl)-propan-1-one] | 
1.74 nM | O=C(CCc1ccc(NC2=NCCN2)cc1)c1ccc(Cl)c(Cl)c1Cl [3-[4-(4,5-dihydro-1H-imidazol-2-ylamino)phenyl]-1-(2,3,4-trichlorophenyl)-propan-1-one] | 
0.398 nM | O=C(CCc1ccc(NC2=NCCN2)cc1)c1ccc(Cl)cc1 [1-(4-chlorophenyl)-3-[4-(4,5-dihydro-1H-imidazol-2-ylamino)phenyl]-propan-1-one] | 
